From the NIST ThermoML archive (doi:10.1016/j.jct.2008.09.002)

Experiments:
[1] = xn = mol fraction of the nth substance listed; settings: 101.3 kPa, Liquid, Vibrating tube method
[2] = molar heat capacity at constant pressure; xn = mol fraction of the nth substance listed; settings: 101.3 kPa, Liquid, Small sample (50 mg) DSC

C[N+](=O)[O-] [nitromethane] + CCCCn1cc[n+](C)c1.F[B-](F)(F)F
Settings | mass density [kg/m3] | molar heat capacity at constant pressure [J/K/mol]
[1], 293.15 K, x2 = 0.1007 | 1167 | –
[1], 293.15 K, x2 = 0.2066 | 1181.1 | –
[1], 293.15 K, x2 = 0.2597 | 1185.9 | –
[1], 293.15 K, x2 = 0.3069 | 1189.3 | –
[1], 293.15 K, x2 = 0.3957 | 1194.4 | –
[1], 293.15 K, x2 = 0.41 | 1195 | –
[1], 293.15 K, x2 = 0.4866 | 1198.1 | –
[1], 293.15 K, x2 = 0.5058 | 1198.7 | –
[1], 293.15 K, x2 = 0.6016 | 1201.5 | –
[1], 293.15 K, x2 = 0.6455 | 1202.6 | –
[1], 293.15 K, x2 = 0.6837 | 1203.4 | –
[1], 293.15 K, x2 = 0.7793 | 1205.1 | –
[1], 293.15 K, x2 = 0.8867 | 1206.5 | –
[1], 298.15 K, x2 = 0.1007 | 1161.3 | –
[1], 298.15 K, x2 = 0.2066 | 1176.1 | –
[1], 298.15 K, x2 = 0.2597 | 1181.1 | –
[1], 298.15 K, x2 = 0.3069 | 1184.7 | –
[1], 298.15 K, x2 = 0.3957 | 1190 | –
[1], 298.15 K, x2 = 0.41 | 1190.6 | –
[1], 298.15 K, x2 = 0.4866 | 1193.9 | –
[1], 298.15 K, x2 = 0.5058 | 1194.6 | –
[1], 298.15 K, x2 = 0.6016 | 1197.5 | –
[1], 298.15 K, x2 = 0.6455 | 1198.6 | –
[1], 298.15 K, x2 = 0.6837 | 1199.5 | –
[1], 298.15 K, x2 = 0.7793 | 1201.3 | –
[1], 298.15 K, x2 = 0.8867 | 1202.9 | –
[1], 303.15 K, x2 = 0.1007 | 1155.7 | –
[1], 303.15 K, x2 = 0.2066 | 1171.1 | –
[1], 303.15 K, x2 = 0.2597 | 1176.4 | –
[1], 303.15 K, x2 = 0.3069 | 1180.1 | –
[1], 303.15 K, x2 = 0.3957 | 1185.6 | –
[1], 303.15 K, x2 = 0.41 | 1186.3 | –
[1], 303.15 K, x2 = 0.4866 | 1189.7 | –
[1], 303.15 K, x2 = 0.5058 | 1190.4 | –
[1], 303.15 K, x2 = 0.6016 | 1193.5 | –
[1], 303.15 K, x2 = 0.6455 | 1194.7 | –
[1], 303.15 K, x2 = 0.6837 | 1195.6 | –
[1], 303.15 K, x2 = 0.7793 | 1197.5 | –
[1], 303.15 K, x2 = 0.8867 | 1199.2 | –
[1], 308.15 K, x2 = 0.1007 | 1150 | –
[1], 308.15 K, x2 = 0.2066 | 1166 | –
[1], 308.15 K, x2 = 0.2597 | 1171.5 | –
[1], 308.15 K, x2 = 0.3069 | 1175.4 | –
[1], 308.15 K, x2 = 0.3957 | 1181.2 | –
[1], 308.15 K, x2 = 0.41 | 1181.9 | –
[1], 308.15 K, x2 = 0.4866 | 1185.5 | –
[1], 308.15 K, x2 = 0.5058 | 1186.3 | –
[1], 308.15 K, x2 = 0.6016 | 1189.5 | –
[1], 308.15 K, x2 = 0.6455 | 1190.8 | –
[1], 308.15 K, x2 = 0.6837 | 1191.7 | –
[1], 308.15 K, x2 = 0.7793 | 1193.7 | –
[1], 308.15 K, x2 = 0.8867 | 1195.6 | –
[1], 313.15 K, x2 = 0.1007 | 1144.4 | –
[1], 313.15 K, x2 = 0.2066 | 1161.1 | –
[1], 313.15 K, x2 = 0.2597 | 1166.8 | –
[1], 313.15 K, x2 = 0.3069 | 1170.9 | –
[1], 313.15 K, x2 = 0.3957 | 1176.9 | –
[1], 313.15 K, x2 = 0.41 | 1177.6 | –
[1], 313.15 K, x2 = 0.4866 | 1181.4 | –
[1], 313.15 K, x2 = 0.5058 | 1182.2 | –
[1], 313.15 K, x2 = 0.6016 | 1185.5 | –
[1], 313.15 K, x2 = 0.6455 | 1186.9 | –
[1], 313.15 K, x2 = 0.6837 | 1187.9 | –
[1], 313.15 K, x2 = 0.7793 | 1190 | –
[1], 313.15 K, x2 = 0.8867 | 1191.9 | –
[1], 318.15 K, x2 = 0.1007 | 1138.7 | –
[1], 318.15 K, x2 = 0.2066 | 1156.1 | –
[1], 318.15 K, x2 = 0.2597 | 1162.1 | –
[1], 318.15 K, x2 = 0.3069 | 1166.3 | –
[1], 318.15 K, x2 = 0.3957 | 1172.5 | –
[1], 318.15 K, x2 = 0.41 | 1173.3 | –
[1], 318.15 K, x2 = 0.4866 | 1177.2 | –
[1], 318.15 K, x2 = 0.5058 | 1178 | –
[1], 318.15 K, x2 = 0.6016 | 1181.6 | –
[1], 318.15 K, x2 = 0.6455 | 1183 | –
[1], 318.15 K, x2 = 0.6837 | 1184 | –
[1], 318.15 K, x2 = 0.7793 | 1186.3 | –
[1], 318.15 K, x2 = 0.8867 | 1188.3 | –
[2], 293.15 K, x2 = 0.0525 | – | 119.2
[2], 293.15 K, x2 = 0.1029 | – | 131.6
[2], 293.15 K, x2 = 0.1943 | – | 154.9
[2], 293.15 K, x2 = 0.2941 | – | 180.5
[2], 293.15 K, x2 = 0.3911 | – | 205.4
[2], 293.15 K, x2 = 0.5609 | – | 248.8
[2], 293.15 K, x2 = 0.7062 | – | 285.8
[2], 293.15 K, x2 = 0.7578 | – | 299
[2], 293.15 K, x2 = 0.897 | – | 334.5
[2], 293.15 K, x2 = 0.9436 | – | 346.4
[2], 293.15 K, x2 = 0.9716 | – | 353.6
[2], 298.15 K, x2 = 0.0525 | – | 119.6
[2], 298.15 K, x2 = 0.1029 | – | 132.1
[2], 298.15 K, x2 = 0.1943 | – | 155.6
[2], 298.15 K, x2 = 0.2941 | – | 181.5
[2], 298.15 K, x2 = 0.3911 | – | 206.7
[2], 298.15 K, x2 = 0.5609 | – | 250.6
[2], 298.15 K, x2 = 0.7062 | – | 288.1
[2], 298.15 K, x2 = 0.7578 | – | 301.4
[2], 298.15 K, x2 = 0.897 | – | 337.4
[2], 298.15 K, x2 = 0.9436 | – | 349.5
[2], 298.15 K, x2 = 0.9716 | – | 356.7
[2], 303.15 K, x2 = 0.0525 | – | 120
[2], 303.15 K, x2 = 0.1029 | – | 132.7
[2], 303.15 K, x2 = 0.1943 | – | 156.4
[2], 303.15 K, x2 = 0.2941 | – | 182.5
[2], 303.15 K, x2 = 0.3911 | – | 208
[2], 303.15 K, x2 = 0.5609 | – | 252.3
[2], 303.15 K, x2 = 0.7062 | – | 290.2
[2], 303.15 K, x2 = 0.7578 | – | 303.7
[2], 303.15 K, x2 = 0.897 | – | 340
[2], 303.15 K, x2 = 0.9436 | – | 352.3
[2], 303.15 K, x2 = 0.9716 | – | 359.5
[2], 308.15 K, x2 = 0.0525 | – | 120.5
[2], 308.15 K, x2 = 0.1029 | – | 133.3
[2], 308.15 K, x2 = 0.1943 | – | 157.1
[2], 308.15 K, x2 = 0.2941 | – | 183.3
[2], 308.15 K, x2 = 0.3911 | – | 209.1
[2], 308.15 K, x2 = 0.5609 | – | 253.8
[2], 308.15 K, x2 = 0.7062 | – | 292.1
[2], 308.15 K, x2 = 0.7578 | – | 305.6
[2], 308.15 K, x2 = 0.897 | – | 342.3
[2], 308.15 K, x2 = 0.9436 | – | 354.7
[2], 308.15 K, x2 = 0.9716 | – | 362
[2], 313.15 K, x2 = 0.0525 | – | 121
[2], 313.15 K, x2 = 0.1029 | – | 133.9
[2], 313.15 K, x2 = 0.1943 | – | 157.8
[2], 313.15 K, x2 = 0.2941 | – | 184.1
[2], 313.15 K, x2 = 0.3911 | – | 210.1
[2], 313.15 K, x2 = 0.5609 | – | 255.1
[2], 313.15 K, x2 = 0.7062 | – | 293.7
[2], 313.15 K, x2 = 0.7578 | – | 307.3
[2], 313.15 K, x2 = 0.897 | – | 344.2
[2], 313.15 K, x2 = 0.9436 | – | 356.8
[2], 313.15 K, x2 = 0.9716 | – | 364.1
[2], 318.15 K, x2 = 0.0525 | – | 121.4
[2], 318.15 K, x2 = 0.1029 | – | 134.3
[2], 318.15 K, x2 = 0.1943 | – | 158.3
[2], 318.15 K, x2 = 0.2941 | – | 184.7
[2], 318.15 K, x2 = 0.3911 | – | 210.9
[2], 318.15 K, x2 = 0.5609 | – | 256.2
[2], 318.15 K, x2 = 0.7062 | – | 295.1
[2], 318.15 K, x2 = 0.7578 | – | 308.7
[2], 318.15 K, x2 = 0.897 | – | 345.9
[2], 318.15 K, x2 = 0.9436 | – | 358.5
[2], 318.15 K, x2 = 0.9716 | – | 365.8
